The text below walks through data of patent publication US20020013282A1, “CATIONIC AMPHIPILE COMPOSITIONS FOR INTERACELLUAR DELIVERY OF THERAPEUTIC MOLECULES” (priority 1995, published 2002).

The subject of one data set is lungs of balb/c mice. As to the method: This assay was used to assess the ability of the cationic amphiphiles of the invention to transfect cells in vivo from live specimens. In the assay, the lungs of balb/c mice were instilled intra-nasally (the procedure can also be performed trans-tracheally) with 100 μl of cationic amphiphile: DNA complex, which was allowed to form during a 15-minute period prior to administration according to the following procedure. The amphiphile (premixed with co-lipid, see below) was hydrated in water for 10 minutes, a period sufficient to yield a suspension at twice the final concentration required. This was vortexed for two minutes and aliquoted to provide 55 microliter quantities for each mouse to be instilled. Similarly, DNA encoding the reporter (CAT) gene was diluted with water to a concentration twice the required final concentration, and then aliquoted at 55 microliters for each mouse to be instilled. The lipid was gently combined with the DNA (in a polystyrene tube), and the complex allowed to form for 15 minutes before the mice were instilled therewith.
The plasmid used (pCMVHI-CAT, see Example 4) provides an encoding DNA for chloramphenicol transferase enzyme. Specifics on the amphiphile: DNA complexes are provided below.
Two days following transfection, mice were sacrificed, and the lungs and trachea removed, weighed, and homogenized in a buffer solution (250 mM Tris, pH 7.8, 5 mM EDTA). The homogenate was clarified by centrifugation, and the deacetylases therein were inactivated by heat treatment at 70° C. for 10 minutes. Lysate was incubated overnight with acetyl coenzyme A and C^14-chloramphenicol. CAT enzyme activity was then visualized by thin layer chromatography (“TLC”) following an ethyl acetate extraction.
The presence of the enzyme CAT will cause an acetyl group to be transferred from acetylcoenzyme A to C^14-chloramphenicol. The acetylated/radiolabeled chloramphenicol migrates faster on a TLC plate and thus its presence can be detected.
With respect to the comparison provided by FIG. 10, the following conditions are of note. The transfection solution for spermidine cholesterol carbamate contained 6 mM DNA measured as concentration of nucleotide, and 1.5 mM of cationic amphiphile. […] For transfection with DC-chol, the molar ratio of DC-chol to DOPE was 3:2, and the concentrations of cationic amphiphile and of DNA (as nucleotide) were 1.3 mM and 0.9 mM, respectively. For transfection with DMRIE, the molar ratio of DMRIE to DOPE was 1:1 and the concentrations of cationic amphiphile and of DNA were 1.7 mM and 1.2 mM, respectively.
Additional experiments were performed to compare in vivo the transfection efficiency of cationic amphiphiles depicted in FIGS. 1, 5 and 7. […] The compounds were administered intra-nasally using between 12 and 15 mice per compound. As in part A above, ng CAT activity was measured per 100 mg of tissue. […] Construction of pCF1/CAT and pCF2/CAT is described below in Example 4.
The in vivo data reported in FIGS. 13, 14 and 15 were compiled generally as follows. As aforementioned, FIGS. 10 and 11 report data from the complete in vivo optimization of amphiphile No. 53. Amphiphile No. 67 was subjected to a similar partial optimization. With respect to all of the other cationic amphiphiles reported on, and taking advantage of numerous structural similarities, optimized compositions for in vivo testing were extrapolated from in vitro results.

Data set [1] has as its system Immortalized human cystic fibrosis airway cells (CFT-1). Briefly: SPQ assay of cAMP-stimulated Cl− channel activity after transfection with pCMV-CFTR. In kind it is cell-based. As to conditions: amphiphile:DOPE 1:1, 10.5 μmolar each, 30 μmolar pCMV-CFTR; 48 hours after transfection. As to the method: Immortalized human cystic fibrosis airway cells (CFT-1, as above) were used.
In preparation for the assay, the cells were grown on glass coverslips until approximately 60% confluent. The cells were then transfected with a complex of spermidine cholesterol carbamate: DOPE (1:1) and a plasmid(pCMV-CFTR) containing a cDNA that encodes wild type human CFTR. pCMV-CFTR plasmid is a construct containing the encoding sequence for CFTR and the following regulatory elements, a CMV promoter and enhancer, and an SV40 polyadenylation signal. Additional constructs suitable for the practice of this example include pMT-CFTR, Cheng et al., Cell. 63, 827-834 (1990). The complex used was 10.5 μmolar of spermidine cholesterol carbamate (also of DOPE) and 30 μmolar of pCMV-CFTR based on nucleotide.
48 hours after amphiphile-mediated transfection, cells were tested for cAMP-stimulated Cl^−channel activity using the 6methoxy-N-(3-sulfopropyl)quinolinium (“SPQ”) assay. […] In the assay, cAMP-dependent Cl^−channel activity was assessed using “SPQ” (from Molecular Probes, Eugene, Oreg.), a halide-sensitive fluorophore. Increases in halide permeability results in a more rapid increase in SPQ fluorescence, and the rate of change (rather than the absolute change in fluorescence) is the important variable in assessing Cl^−permeability. […]

Data set [2] is described as follows: Zeta potential of amphiphile/DNA complex. Type of data set: physicochemical. As to conditions: 1:1 with DOPE. As to the method:
Zeta potentials of the samples can be measured (using typically 5 measurements per sample) employing a Malvern Zetasizer 4 (Malvern Instruments, Southborough, Mass.) and a zeta cell (AZ-104 cell, Malvern Instruments Co.). Dried lipid films containing the cationic lipid and DOPE are hydrated in distilled water (dH2O). DNA typically should be diluted to a concentration of about 300 μM in dH2O. The DNA solution (1.5 mL) can then be added to an equal volume of cationic lipid vesicles and incubated at room temperature for 10 min. Enough NaCl (for example, 4 mM stock) may be added to result in a final concentration of 1 mM NaCl. If necessary, the sample can be diluted further with 1 mM NaCl (to maintain a photomultiplier signal below 4000 counts per second), and distilled water can be used in place of the NaCl solutions.

The test system of data set [3] is CFT-1 cell line (human cystic fibrosis bronchial epithelial cells). In words: Cell transfection assay (β-galactosidase expression from pCMVβ). Type of data set: cell-based. As to conditions: amphiphile:DOPE 1:1, CFT-1 cells.
Protocol: Separate 3.35 μmole samples of spermidine cholesterol carbamate (amphiphile No. 53) and the neutral lipid dioleoylphosphatidylethanolamine (“DOPE”) were each dissolved in chloroform as stock preparations. Following combination of the solutions, a thin film was produced by removing chloroform from the mixture by evaporation under reduced pressure (20 mm Hg). The film was further dried under vacuum (1 mm Hg) for 24 hours.
The resulting suspension was then diluted with 4 ml of water to yield a solution that is 670 μM in cationic amphiphile and 670 μM in neutral colipid.
For preparation of the transfecting solution, DNA encoding for β- galactosidase (pCMVβ, ClonTech., Palo Alto, Calif.) was dissolved in OptiMEM culture medium (Gibco/BRL No. 31885-013).
The resulting 335 μM solutions were then serially diluted 7 times to generate 8 separate amphiphile-containing solutions having concentrations ranging from 335 μM to 2.63 μM, with each resultant solution having a volume of 165 μl. Thus, 64 solutions were prepared in all, there being 8 wells each of 8 different concentrations of amphiphile/DOPE. […]
In the next data set the test system is BALB/c mouse. In words: Intravenous delivery of CAT reporter transgene, organ targeting (lung, heart). In kind it is in vivo. How it is done:
The reporter plasmid pCF-1 CAT (Example 4) was used and was purified to minimize endotoxin (<1 EU/mg pDNA), and also chromosomal DNA contamination (<2%). Amphiphile No. 53 (1:1 with DOPE)/DNA complex was prepared according to the procedures of Example 3. The amphiphile was provided as the free base, the plasmid was prepared as a sodium salt in water, and the DOPE was provided in zwitterionic form.
The animal model was the BALB/c mouse. Females 6-8 weeks old weighing 16-18 g were injected intravenously using the tail vein, using 5 animals per group. The volume of lipid: pDNA complex used was 100 μl in all experiments. Unless noted otherwise, mice were sacrificed 48 h following administration of the complex. Organs were frozen immediately on dry ice to store for subsequent analysis.
Expression of chloramphenicol acetyl transferase (CAT) was quantitated using a radiochemical assay for CAT enzymatic activity. Organs were weighed and homogenized on ice in a lysis buffer containing protease inhibitors. The lysate was freeze-thawed 3X, centrifuged, and heated to 65° C. to inactivate deacetylases before adding it to a reaction mixture containing ^14C-chloramphenicol. […] Spots corresponding to the acylated reaction products were quantitated (Betagen) and converted to ng CAT activity using authentic CAT standards. […]

Data set [4] in a line: Transacylation reaction of amphiphile with co-lipid DOPE on co-storage. Type of data set: physicochemical. The text has this: Although heretofore unrecognized in the art, it has been determined also that certain co-lipids may react chemically with certain types of cationic amphiphiles under conditions of co-storage, there resulting new molecular species. Generation of such new species is believed to occur via mechanisms such as transacylation. In this regard, see FIG. 4 which depicts a transacylation reaction involving spermidine cholesterol carbamate(No.67) and DOPE, there resulting lyso PE species and multiple forms of particular acyl-cationic amphiphile (designated No. 80).
With respect to such reactions, the following remarks are of interest. […] It is expected that these phenomena would also apply to lyophilized amphiphile/DOPE preparations.
Accordingly, it is highly preferred to maintain such amphiphile/DOPE preparations at very cold temperatures, such as −70 degrees C.

Data set [5] can be described thus: Transgene expression by protonation state of the amphiphile in transfecting composition with DOPE. As to conditions: for transgene expression activity: with DOPE. How it is done: With respect to amphiphile No. 67 (spermidine cholesterol carbamate), it has been observed that when providing this amphiphile for a transfecting composition with DOPE (itself provided as a zwitterion), transgene expression was best for the free base, but decreased if the amphiphile was prepared as an acetate salt. […] Under the circumstances described, the plasmid DNA provided for contacting with the amphiphile was prepared (without buffer) as a sodium salt in water.

Where [6] appears, read: 0.6 mM amphiphile, 0.6 or 1.2 mM DOPE, 3.6 mM plasmid DNA.
The mark [7] stands for this setting: 1.0-1.5 mM amphiphile, cholesterol 1:1, DNA 4.0-6.0 mM, pCMVHI-CAT, intra-nasal.

Molecules are shown by their SMILES.

With `CC(C)CCCC(C)C1CCC2C3CC=C4CC(OC(=O)NCCCNCCCCN)CCC4(C)C3CCC12C` (centres unmarked) [amphiphile No. 37, N^1-spermidine cholesteryl carbamate], in the data set on lungs of balb/c mice (setting [6]), the “improvement in reporter gene expression, free base form versus fully protonated hydrochloride salt” value is roughly 50 fold and the “reporter gene expression, free base form compared to fully protonated hydrochloride salt” value is on record as “dramatically increased”.
Turning to `CC(C)CCCC(C)C1CCC2C3CC=C4CC(OC(=O)N(CCCN)CCCCN)CCC4(C)C3CCC12C` (centres unmarked) [amphiphile No. 53, N^4-spermidine cholesteryl carbamate], in data set [1], the “cells exhibiting measurable cAMP-stimulated Cl− channel activity” value is recorded as “Approximately 60%”. The “enhancement of in vivo transfection (ng CAT activity per 100 mg tissue) in relation to DMRIE and DC-Chol” value in the data set on lungs of balb/c mice (1.5 mM amphiphile, 1:1 DOPE, 6 mM DNA (pCMVHI-CAT), intra-nasal, 2 days) is recorded as no less than 20 fold. The “transfection enhancement in relation to N^1-spermidine cholesteryl carbamate” value with lungs of balb/c mice (6 mM DNA (as nucleotide), 1.5 mM amphiphile, 1.5 mM co-lipid, procedures of Example 3 part B) is listed as “about 30 fold”. Moreover, the “transfection efficiency (ng CAT/100 mg tissue) with cholesterol as co-lipid compared with DOPE as co-lipid” value in the data set on lungs of balb/c mice (setting [7]) is given as “less effective”. For the same compound, the “transfection with cholesterol as co-lipid compared with DC-Chol/DOPE” value in the data set with lungs of balb/c mice (setting [7]) is “substantially more effective”. In the data set with lungs of balb/c mice (about 0.75 mM amphiphile, 3.0 mM plasmid, versus 1.5 mM / 6 mM), the “toxicity to the target cells” value is reported as “less toxic”. The “zeta potential of the complex” value in data set [2] (amphiphile/DNA molar ratio less than about 0.5) is “about −30 mV”; in data set [2] (amphiphile/DNA ratio of 1.25), “about +30 mV”. Besides, the “transfection efficiency (β-galactosidase expression) improved by a factor, relative to DMRIE:DOPE (1:1)” value in data set [3] was “about 5”. The “organ distribution of CAT expression” value with BALB/c mouse (amphiphile/DNA molar ratio less than about 0.5, DNA 0.9 mM) is “strongly weighted toward the lung”; with BALB/c mouse (amphiphile/DNA ratio 1.25, DNA 0.9 mM) it was “substantial expression was found in the heart”.
With `CC(C)CCCC(C)C1CCC2C3CC=C4CC(OC(=O)N(CCCN)CCCCNCCCN)CCC4(C)C3CCC12C` (centres unmarked) [amphiphile No. 67], the “transfection enhancement in relation to N^1-thermospermine cholesteryl carbamate and N^1-spermidine cholesteryl carbamate” value with lungs of balb/c mice (4 mM DNA (as nucleotide), 1 mM amphiphile, 2 mM co-lipid, procedures of Example 3 part B) was “at least 30 fold”. The “transacylation with DOPE” value was “transacylation also occurs” in data set [4] (amphiphile and co-lipid dried down to a thin film from chloroform); “slow transacylations” in data set [4] (amphiphile prepared as mono, di, or tri acetate salt); “does not appear to participate in such reactions” in data set [4] (mixture of amphiphile and DOPE in chloroform solvent). Further, in data set [5] (amphiphile as free base, with DOPE (zwitterion)), the transgene expression entry is listed as “best”. Moreover, the transgene expression activity entry is “decreased step-wise” in data set [5] (amphiphile as mono and di acetate salts); “minimal” in data set [5] (amphiphile as tri-acetate salt).
